Test results taken from US20160106837A1, “COMBINATION OF CD37 ANTIBODIES WITH CHLORAMBUCIL” (BOEHRINGER INGELHEIM INTERNATIONAL GMBH, priority 2013, published 2016).
“Also recorded” adds a separate entry of the source.

What was measured:
[1] = test system: human follicular lymphoma DOHH2; experiment: Subcutaneous xenograft model of the human follicular lymphoma DOHH2 in C.B-17 scid mice: tumor growth; assay type: in vivo
[2] = Body weight / tolerability in DOHH2 tumor-bearing C.B-17 scid mice

O=C(O)CCCc1ccc(N(CCCl)CCCl)cc1 [chlorambucil, 4-[Bis(2-chloroethy)amino]benzenebutaonic acid]
CR (complete tumor regression) ([1]; day 16): 0 x/7 | PR (partial tumor regression) ([1]; day 16): 0 x/7 | tumor regression (in words) ([1]; day 16): tumor regressions were not observed | TGI ([1]; median, day 16, A2 10 mg/kg i.p. d1,5,8,12,15, chlorambucil 6 mg/kg i.p. d2,6): 71% | tumor growth inhibition (in words) ([1]; vs controls): moderate but significant inhibition of tumor growth; also recorded: moderate but significant efficacy | body weight loss during first week ([2]; after one week / first 7 days of the study): 13.4% | Weight change ([2]; median body weight change, day 16): −5.4%
